Experimental findings from US20230226018A1, “APPLICATION OF COMPOUND USING INTRA-CYCLIC PEROXO-BRIDGED SESQUITERPENES AS PARENT NUCLEUS IN METABOLISM-RELATED FATTY LIVER DISEASES” (SHANGHAI JIAO TONG UNIVERSITY, priority 2021, published 2023) are described below.

Experiment [1] relates to C57 mice fed with 10% lard and 5% fructose. Description: Expression of lipid metabolism-related genes in liver tissue of mice on high-fat and high-sugar diet. Format: in vivo. As to conditions: artemisinin 100 mg/kg for 12 weeks, FIGS. 10A-10I. As to the method:
C57 mice were selected and fed with feedstuffs that were added with 10% lard and 5% fructose. After 12 weeks, the mice suffered from liver metabolism disruption, generated insulin resistance, and were stuck in mitochondrial dysfunction in liver cells, thus resulting in a decrease in fatty acid β-oxidation capacity and fat accumulation in the liver, and inflammation and fibrosis were produced. Artemisinin was given at a dosage of 100 mg/kg from the 13th week as a treatment for 12 weeks. At the end of the experiment, the mice were dissected to obtain livers. A part of the livers was subjected to HE staining and Oli red O staining to quantify the liver lipids and conduct a pathological scoring of liver steatosis of the mice based on the steatosis activity fibrosis (SAF) scoring system. […] A part of the livers of the mice in each group mentioned above was taken, RNA and protein were extracted, and the study of the expression of related genes and proteins was conducted to detect the expression levels of lipid metabolism-related genes in liver tissue.

Experiment [2] has the same test system. Description: Expression of autophagy-related proteins (TOR, LC3) in liver of mice on high-fat and high-sugar diet. Type of experiment: in vivo. Particulars: artemisinin 100 mg/kg for 12 weeks, FIGS. 11A-11G. The method, then: (§1) C57 mice were selected and fed with feedstuffs that were added with 10% lard and 5% fructose. After 12 weeks, the mice suffered from liver metabolism disruption, generated insulin resistance, and were stuck in mitochondrial dysfunction in liver cells, thus resulting in a decrease in fatty acid β-oxidation capacity and fat accumulation in the liver, and inflammation and fibrosis were produced. Artemisinin was given at a dosage of 100 mg/kg from the 13th week as a treatment for 12 weeks. At the end of the experiment, the mice were dissected to obtain livers. A part of the livers was subjected to HE staining and Oli red O staining to quantify the liver lipids and conduct a pathological scoring of liver steatosis of the mice based on the steatosis activity fibrosis (SAF) scoring system.
A part of the livers of the mice in each group mentioned above was taken, RNA and protein were extracted, and the study of the expression of related genes and proteins was conducted to detect the expression levels of lipid metabolism-related genes in liver tissue.
Target of rapamycin (TOR) is a key protein in the control of autophagy, which can sense various change signals of cells and strengthen or reduce the occurrence level of autophagy.

For experiment [3] the test system is unchanged. Description: Liver pathology (HE, Oil red O staining, SAF scoring) in mice on high-fat and high-sugar diet. As to conditions: vs high-fat group. Type of experiment: in vivo. As to the method:
as §1

Experiment [4] shares this test system. Briefly: Serum enzyme detection in mice on high-fat and high-sugar diet. Format: in vivo. As to conditions: artemisinin 100 mg/kg for 12 weeks, vs high-fat diet. The method, then:
as §1, with “system. […] The serum of each group of mice mentioned above was taken and subjected to serum enzyme detection.” for “system.”

Experiment [5] relates to HepG2 liver cancer cells. Briefly: Lipid accumulation (triglyceride content, Nile red lipid droplets) in FFA-treated HepG2 liver cancer cells. Type of experiment: cell-based, human. As to conditions: 1 mM/L FFA, 5 μM/L artesunate, 24 h, vs model group.
For experiment [6], the system named is HepG2 liver cancer cells. Description: qRT-PCR expression of CIDE, AMPK pathway and PPAR pathway genes in FFA-treated HepG2 cells. As to conditions: 1 mM/L FFA, 5 μM/L artesunate, 24 h. Type of experiment: cell-based, human. The method, then:
Experimental methods: HepG-2 liver cancer cells with passage times less than 20 times were selected and inoculated into a 12-well plate at a density of 3×10^5 cells/mL. Drug treatment was performed after inoculating for 24 h, and the cells were divided into 3 groups with 4 wells in each group. A complete medium containing 1% bovine serum albumin (BSA) was used as the control group. A complete medium containing 1% BSA and 1 mM/L FFA was used as the high-fat model group. A complete medium containing 1% BSA, 1 mM/L FFA, and 5 μM/L, artesunate was used as the artesunate group. After being treated for 24 h, the cells were collected, and RNA was extracted and reverse-transcribed into cDNA. Quantitative real-time PCR (qRT-PCR) was used to detect the expression of CIDE series genes. AMPK signaling pathway-related genes, and PPAR signaling pathway-related genes in the three groups of cells.
On the technique in general: Real-time PCR tracks product formation cycle by cycle.

The mark [7] stands for this setting: vs model group, p<0.001, FIG. 7.

`C[C@@H]1CC[C@H]2[C@@H](C)C(=O)O[C@@H]3O[C@@]4(C)CC[C@@H]1[C@]32OO4` [artemisinin]: in experiment [1], the “upstream gene expression levels of genes related to lipid synthesis in liver” value was “inhibited”. For the same compound, the “mitochondrial dysfunction and autophagy (mitophagy) level in liver” value in experiment [2] was “effectively resist the mitochondrial dysfunction and the decrease in the autophagy level”. Further, the “score of lobular inflammation (SAF scoring system)” value in experiment [3] (artemisinin 100 mg/kg for 12 weeks, FIG. 9C) is given as “significantly reduced”. For the same compound, the “score of ballooning of liver cells (SAF scoring system)” value in experiment [3] (artemisinin 100 mg/kg for 12 weeks, FIG. 9D) is “significantly reduced”. Moreover, the “liver steatosis (fat blebs, Oil red O staining areas)” value in experiment [3] (artemisinin 100 mg/kg from the 13th week for 12 weeks, FIG. 8) was “significantly improve liver steatosis”. In addition, the “ALT level in the serum” value in experiment [4] (FIG. 9E) is recorded as “significantly reduce the elevation”. Moreover, in experiment [4] (FIG. 9F), the “AST level in the serum” value is given as “significantly reduce the elevation”.
Regarding `C[C@H]1[C@H](OC(=O)CCC(=O)O)O[C@@H]2O[C@@]3(C)CC[C@H]4[C@H](C)CC[C@@H]1[C@@]24OO3` [artesunate], in the experiment on HepG2 liver cancer cells [5] (FIG. 1), the “content of triglyceride (TG) in HepG2 liver cancer cells” value is “significantly decreased”. In the experiment with HepG2 liver cancer cells [5] (FIGS. 2A-2B), the “number of large lipid droplets (Nile red staining)” value is given as “decreased”. The “expression of SREBP1c-ACC/SCD1/FAS genes related to intracellular fatty acid synthesis” value with HepG2 liver cancer cells [6] (FIG. 5) is reported as “reduce the expression”. In the experiment on HepG2 liver cancer cells [6] (setting [7]), the “mRNA level of PPARct.” value is “significantly up-regulated” and the “mRNA level of PPARy” value is reported as “significantly up-regulated”. Also, the “mRNA level of AMPKα (PRKAA1)” value in the experiment on HepG2 liver cancer cells [6] (vs model group, p<0.01, FIG. 4) is “significantly up-regulated”. Further, the “mRNA level of carnitine palmitoyl transferase 1 (CPT-1)” value in the experiment on HepG2 liver cancer cells [6] (vs model group, p<0.01, FIG. 6) is “significantly up-regulated”. Further, in the experiment on HepG2 liver cancer cells [6] (vs model group, FIG. 3), the “mRNA expression of Cide-a gene” value is on record as “significantly lower” and the “mRNA expression of Cide-b gene” value was “significantly lower”.
